Values after ≈ are worked out from the molar mass of the structure shown. Read-outs that look alike come from different tables or passages of the source.
Experiments:
E. coli (MG1655) = experiment: MIC by broth microdilution, E. coli; assay type: cell-based, Escherichia coli; conditions: E. coli MG1655, broth microdilution; for MIC: Escherichia coli
Experimental: (§1) In this study, we have, therefore, altered our strategy and used minimal inhibitory concentration assays to identify and improve antibacterial agents. A total of 10 pyrrolopyrimidines with variation of the 4-amino group were assayed for their MIC in E. coli (MG1655) and S. aureus (ATCC29213) using the broth microdilution method. Subsequently, the compounds were also counter-screened for their inhibition of human EGFR.
(§2) The MIC of compound 1–21 towards Escherichia coli (MG1655) and Staphylococcus aureus (ATCC29213) was determined following the standards that were recommended by the Clinical and Laboratory Standards Institute (CLSI) for the broth microdilution method. Briefly, the bacterial suspensions were adjusted to 0.5 McFarland standard (~1 × 10^8 colony forming units (CFU)/mL) and diluted 1:200 in Cation-Adjusted Mueller-Hinton Broth (CAMHB, […], […]). The suspension was subsequently added to polypropylene microtiter plates (100 µL/well, ~5 × 10^4 CFU/well) that were already prepared with different concentrations of the various halogenated fused pyrimidines (11 µL/well, two-fold serial dilutions). The plates were incubated at 37 °C overnight before inspection for visible growth and determination of the MIC values.

S. aureus (ATCC29213) = experiment: MIC by broth microdilution, S. aureus; assay type: cell-based, Staphylococcus aureus; conditions: for MIC: Staphylococcus aureus; for Activity towards S. aureus (in words): culture, MIC assay
Experimental: as §1, §2

S. aureus = experiment: MIC towards S. aureus in combination with the peptide betatide; assay type: cell-based, Staphylococcus aureus; conditions: betatide 8 mg/L (half its MIC)
Experimental: The concentration of betatide was 8 mg/L, which corresponds to half the MIC concentration.
as §2

human EGFR = molecular target: T1, human EGFR (Homo sapiens, UniProt P00533); experiment: Enzymatic EGFR (ErbB1) inhibition, Z'-LYTE; assay type: biochemical; conditions: 100 nM compound, ATP equal to KM
T1 construct: purchased Invitrogen (ThermoFisher), assay service
Experimental: The compounds were supplied in a 10 mM DMSO solution, and enzymatic EGFR (ErbB1) inhibition potency was determined by Invitrogen (ThermoFisher) using their Z’-LYTE® assay technology. The compounds were tested for their inhibitory activity at 100 nM in duplicates. The IC50 values that were reported for 1 and 5 are based on the average of 2 titration curves (20 data points), and were calculated from activity data with a four-parameter logistic model using SigmaPlot (Windows Version 12.0 from Systat Software, Inc., Palo Alto, CA, USA). Unless stated otherwise, the ATP concentration that was used was equal to apparent KM.

[1] = ATCC29213, S. aureus, single agent (Table 3), read-out: Single Comp. MIC
[2] = S. aureus ATCC29213, broth microdilution, read-out: S. aureus MIC

Compound	melting point	MIC (E. coli (MG1655)) [mg/L]	MIC (S. aureus (ATCC29213); [1]) [mg/L]	MIC (S. aureus (ATCC29213); [2]) [mg/L]	Combination with Betatide MIC (S. aureus) [mg/L]	inhibition at 0.1 µM (human EGFR) [%]	Activity towards S. aureus (in words) (S. aureus (ATCC29213))	E. coli MIC (E. coli (MG1655)) [mg/L]	S. aureus MIC (S. aureus (ATCC29213); S. aureus ATCC29213, broth microdilution) [mg/L]	Human EGFR % inhibition (human EGFR) [%]
C[C@@H](Nc1ncnc2[nH]c(-c3ccc(O)cc3)cc12)c1ccc(I)cc1 (hydrate or solvate) [Compound 6, (R)-4-(4-((1-(4-Iodophenyl)ethyl)amino)-7H-pyrrolo[2,3-d]pyrimidin-6-yl)phenol]	254.9 to 256 °C (dec.)	–	–	–	–	–	–	–	–	–
Cc1ccc([C@@H](C)Nc2ncnc3[nH]c(-c4ccc(O)cc4)cc23)cc1 [Compound 2, (R)-4-(4-((1-(p-Tolyl)ethyl)amino)-7H-pyrrolo[2,3-d]pyrimidin-6-yl)phenol]	–	> 128	16 (≈ 46.5 µM)	16 (≈ 46.5 µM)	8	91	–	–	–	–
C[C@@H](Nc1ncnc2[nH]c(-c3ccc(O)cc3)cc12)c1ccc(F)cc1 [Compound 3]	–	> 128	–	> 128	–	92	inactive	–	–	–
C[C@@H](Nc1ncnc2[nH]c(-c3ccc(O)cc3)cc12)c1ccc(Cl)cc1 [Compound 4, (R)-4-(4-((1-(4-Chlorophenyl)ethyl)amino)-7H-pyrrolo[2,3-d]pyrimidin-6-yl)phenol]	216.6 °C (dec.)	> 128	16 (≈ 43.9 µM)	16 (≈ 43.9 µM)	4	91	–	–	–	–
C[C@@H](Nc1ncnc2[nH]c(-c3ccc(O)cc3)cc12)c1ccc(I)cc1 [Compound 6, (R)-4-(4-((1-(4-Iodophenyl)ethyl)amino)-7H-pyrrolo[2,3-d]pyrimidin-6-yl)phenol]	–	> 128	8 (≈ 17.5 µM)	8 (≈ 17.5 µM)	2	43	–	–	–	–
C[C@@H](Nc1ncnc2[nH]c(-c3ccc(O)cc3)cc12)c1cccc(Br)c1 [Compound 7, (R)-4-(4-((1-(3-Bromophenyl)ethyl)amino)-7H-pyrrolo[2,3-d]pyrimidin-6-yl)phenol]	–	> 128	16 (≈ 39.1 µM)	16 (≈ 39.1 µM)	4	89	–	–	–	–
Oc1ccc(-c2cc3c(NCc4ccc(Br)cc4)ncnc3[nH]2)cc1 [Compound 8, 4-(4-((4-Bromobenzyl)amino)-7H-pyrrolo[2,3-d]pyrimidin-6-yl)phenol]	–	> 128	–	> 128	–	67	abolished all activity	–	–	–
C[C@H](Nc1ncnc2[nH]c(-c3ccc(O)cc3)cc12)c1ccc(Br)cc1 [Compound 9, (S)-4-(4-((1-(4-Bromophenyl)ethyl)amino)-7H-pyrrolo[2,3-d]pyrimidin-6-yl)phenol]	–	> 128	–	> 128	–	–	abolished all activity	–	–	–
COc1ccc(-c2cc3c(N[C@@H](C)c4ccc(Br)cc4)ncnc3[nH]2)cc1 [Compound 11, (S)-N-(1-(4-Bromophenyl)ethyl)-6-(4-methoxyphenyl)-7H-pyrrolo[2,3-d]pyrimidin-4-amine]	–	> 128	–	> 128	–	–	–	–	–	–
C[C@@H](Nc1ncnc2[nH]c(-c3ccccc3)cc12)c1ccc(Br)cc1 [Compound 12, (R)-N-(1-(4-Bromophenyl)ethyl)-6-phenyl-7H-pyrrolo[2,3-d] pyrimidin-4-amine]	–	> 128	–	> 128	–	66	–	–	–	–
C[C@@H](Nc1ncnc2[nH]c(-c3ccc(F)cc3)cc12)c1ccc(Br)cc1 [Compound 13, (R)-N-(1-(4-Bromophenyl)ethyl)-6-(4-fluorophenyl)-7H-pyrrolo[2,3-d] pyrimidin-4-amine]	–	> 128	–	> 128	–	58	–	–	–	–
C[C@@H](Nc1ncnc2[nH]c(-c3ccc([N+](=O)[O-])cc3)cc12)c1ccc(Br)cc1 [Compound 14, (R)-N-(1-(4-Bromophenyl)ethyl)-6-(4-nitrophenyl)-7H-pyrrolo [2,3-d] pyrimidin-4-amine]	–	> 128	–	> 128	–	33	–	–	–	–
C[C@@H](Nc1ncnc2[nH]c(-c3ccc(N)cc3)cc12)c1ccc(Br)cc1 [Compound 15, (R)-6-(4-Aminophenyl)-N-(1-(4-bromophenyl)ethyl)-7H-pyrrolo[2,3-d]pyrimidin-4-amine]	–	> 128	–	> 128	–	90	–	–	–	–
(R)-4-(4-((1-(4-Bromophenyl)ethyl)(methyl)amino)-7H-pyrrolo [2,3-d]pyrimidin-6-yl)phenol [Compound 10]	–	–	–	–	–	–	abolished all activity	>128	>128	16

More lines, main results first:

melting point	MIC (E. coli (MG1655)) [mg/L]	MIC (S. aureus (ATCC29213); [1]) [mg/L]	MIC (S. aureus (ATCC29213); [2]) [mg/L]	Combination with Betatide MIC (S. aureus) [mg/L]	inhibition at 0.1 µM (human EGFR) [%]	Compound	Activity towards S. aureus (in words) (S. aureus (ATCC29213))	E. coli MIC (E. coli (MG1655)) [mg/L]	S. aureus MIC (S. aureus (ATCC29213); S. aureus ATCC29213, broth microdilution) [mg/L]	Human EGFR % inhibition (human EGFR) [%]
144.1 to 145.4 °C	–	–	–	–	–	C[C@@H](Nc1ncnc2sc(-c3ccc(O)cc3)cc12)c1ccc(Br)cc1 (hydrate or solvate) [Compound 21, (R)-4-(4-((1-(4-Bromophenyl)ethyl)amino)thieno[2,3-d]pyrimidin-6-yl)phenol]	–	–	–	–
–	> 128	–	> 128	–	42	COC(=O)c1ccc(-c2cc3c(N[C@H](C)c4ccc(Br)cc4)ncnc3[nH]2)cc1 [Compound 16, Methyl (R)-4-(4-((1-(4-bromophenyl)ethyl)amino)-7H-pyrrolo[2,3-d]pyrimidin-6-yl)be-nzoate]	–	–	–	–
–	> 128	–	> 128	–	85	C[C@@H](Nc1ncnc2[nH]c(-c3ccc(S(N)(=O)=O)cc3)cc12)c1ccc(Br)cc1 [Compound 17, (R)-4-(4-((1-(4-Bromophenyl)ethyl)amino)-7H-pyrrolo[2,3-d]pyrimidin-6-yl)benzene-sulfonamide]	–	–	–	–
–	> 128	–	> 128	–	80	C[C@@H](Nc1ncnc2[nH]c(-c3ccccc3O)cc12)c1ccc(Br)cc1 [Compound 18, (R)-2-(4-((1-(4-Bromophenyl)ethyl)amino)-7H-pyrrolo[2,3-d]pyrimidin-6-yl)phenol]	–	–	–	–
–	> 128	8 (≈ 19.5 µM)	16 (≈ 39.1 µM)	2	73	C[C@@H](Nc1ncnc2[nH]c(-c3cccc(O)c3)cc12)c1ccc(Br)cc1 [Compound 19, (R)-3-(4-((1-(4-Bromophenyl)ethyl)amino)-7H-pyrrolo[2,3-d]pyrimidin-6-yl)phenol]	–	–	–	–
107.1 to 109.4 °C	> 128	–	> 128	–	12	COc1ccc(-c2cc3c(N[C@H](C)c4ccc(Br)cc4)ncnc3s2)cc1 [Compound 20, (R)-N-(1-(4-Bromophenyl)ethyl)-6-(4-methoxyphenyl)thieno [2,3-d] pyrimidin-4-amine]	no activity	–	–	–
–	> 128	32 (≈ 75.1 µM)	32 (≈ 75.1 µM)	4	5	C[C@@H](Nc1ncnc2sc(-c3ccc(O)cc3)cc12)c1ccc(Br)cc1 [Compound 21, (R)-4-(4-((1-(4-Bromophenyl)ethyl)amino)thieno[2,3-d]pyrimidin-6-yl)phenol]	–	–	–	–

— PMC9330635, “Halogenated Pyrrolopyrimidines with Low MIC on Staphylococcus aureus and Synergistic Effects with an Antimicrobial Peptide” (Antibiotics, 2022)
